System: Cysteine-containing peptide for DPRA
Assay: Skin sensitization test in accordance with DPRA (direct peptide reactivity assay)
Details: relative to peptide decrease percentage of Comparative Example 1 regarded as 100; 50 μL 1,3-butylene glycol with 0.667 mM peptide solution; HPLC after 72±2 hours; average of three measurements
Source text: The product 1,3-butylene glycol in the present embodiment has reduced skin sensitization. Here, skin sensitization refers to causing an allergic reaction after skin contact. For the evaluation of skin sensitization, it had been normal to use experimental animals, but a direct peptide reactivity assay (DPRA), which is an in chemico test, was adopted as an alternative test in OECD guideline TG442C in 2015 from the viewpoint of animal welfare, and in the present embodiment as well, skin sensitization is evaluated by a test in accordance with DPRA. In more detail, skin sensitization is evaluated according to a method described in experimental examples to be described below.
Regarding 1,3-butylene glycol obtained in Examples 1 and 2 and Comparative Examples 1 and 2, skin sensitization was evaluated according to the following method.
15 mg of Cysteine-containing peptide for DPRA manufactured by Scrum Inc. and 30 mL of a 0.05 M phosphate buffer were mixed together to prepare a 0.05 M phosphate buffer solution containing 0.667 mM of the peptide (hereinafter, peptide solution). After one hour elapsed from the preparation of the peptide solution, 750 μL of the peptide solution and 250 μL of acetonitrile were put into each of three brown sample bottles for HPLC to prepare three reference solutions. After two hours elapsed from the preparation of the reference solutions, 750 μL of the peptide solution, 200 μL of acetonitrile and 50 μL of 1,3-butylene glycol were put into a different brown sample bottle for HPLC to prepare a sample solution (sample solution 1). Furthermore, sample solutions were prepared by the same operation after four hours and six hours elapsed from the preparation of the sample solution, respectively (sample solution 2 and sample solution 3). Regarding each of the three reference solutions and the sample solutions (sample solution 1, sample solution 2 and sample solution 3), measurement by HPLC analysis was performed after 72±2 hours elapsed from the preparation of each solution, and the average values of three measurements were calculated for the peak height of the peptide in the reference solutions and the sample solutions, respectively. The peptide decrease percentage was calculated using the following formula (1) from the calculated average values of three measurements.
Peptide decrease percentage (%)=(average value of three measurements for peak height of peptide in sample solutions/average value of three measurements for peak height of peptide in reference solutions)×100 (1)
In addition, regarding the present test, samples of the product 1,3-butylene glycol to be compared were tested on the same day from the viewpoint of the reproducibility. […]

Row | SMILES | Relative value of peptide decrease percentage
1 | CC(O)CCO (stereo not shown) [Comparative Example 1, 1,3-butylene glycol] | 100
2 | CC(O)CCO (stereo not shown) [Example 1, 1,3-butylene glycol] | 73
3 | CC(O)CCO (stereo not shown) [Example 2, 1,3-butylene glycol] | 85
4 | CC(O)CCO (stereo not shown) [Comparative Example 2, 1,3-butylene glycol] | 121

Source: patent publication US20250129002A1, “PRODUCTION METHOD OF PRODUCT 1,3-BUTYLENE GLYCOL” (KH Neochem Co., Ltd., priority 2021, published 2025)
